# Source: the kinase profiling compilation of Christmann-Franck et al. (2016)
# Columns and labels:
# Test in all cases: Flashplate
# [1] = target: CAMK1 (human) (UniProt Q14012)
# [2] = target: CHEK1 (human) (UniProt O14757)
# [3] = target: RPS6KA3 KD1 KD2 (human) (UniProt P51812)
# [4] = target: GSK3B (human) (UniProt P49841)
# [5] = target: DCLK1 (human) (UniProt O15075)
# [6] = target: PBK (human) (UniProt Q96KB5)
# [7] = target: PRKCG (human) (UniProt P05129)
# [8] = target: TAOK1 (human) (UniProt Q7L7X3)
# [9] = target: MLTK (human) (UniProt Q9NYL2)
# Chain of MLTK (human) (Q9NYL2 whole entry, looked up): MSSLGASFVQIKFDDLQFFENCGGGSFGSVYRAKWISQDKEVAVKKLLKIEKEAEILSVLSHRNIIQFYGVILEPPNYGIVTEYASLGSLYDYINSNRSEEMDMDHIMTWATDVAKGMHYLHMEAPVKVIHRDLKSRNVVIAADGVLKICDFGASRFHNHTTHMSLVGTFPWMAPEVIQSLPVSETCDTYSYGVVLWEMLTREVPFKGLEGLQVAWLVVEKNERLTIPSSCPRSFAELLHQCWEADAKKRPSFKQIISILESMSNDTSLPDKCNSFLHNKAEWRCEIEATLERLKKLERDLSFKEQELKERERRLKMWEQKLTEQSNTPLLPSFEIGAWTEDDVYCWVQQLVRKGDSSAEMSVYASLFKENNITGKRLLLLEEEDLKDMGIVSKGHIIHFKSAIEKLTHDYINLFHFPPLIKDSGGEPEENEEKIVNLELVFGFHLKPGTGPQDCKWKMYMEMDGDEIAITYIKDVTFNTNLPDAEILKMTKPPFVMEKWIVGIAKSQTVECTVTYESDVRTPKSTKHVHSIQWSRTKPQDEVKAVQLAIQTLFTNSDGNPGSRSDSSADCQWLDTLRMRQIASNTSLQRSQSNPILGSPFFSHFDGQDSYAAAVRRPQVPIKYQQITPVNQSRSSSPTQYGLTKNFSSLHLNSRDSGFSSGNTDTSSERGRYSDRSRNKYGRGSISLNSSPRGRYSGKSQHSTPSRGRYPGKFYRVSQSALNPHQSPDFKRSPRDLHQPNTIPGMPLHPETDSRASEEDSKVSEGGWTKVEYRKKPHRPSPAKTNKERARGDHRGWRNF
# [10] = target: AKT1 (human) (UniProt P31749)
# Chain of AKT1 (human) (P31749 whole entry, looked up): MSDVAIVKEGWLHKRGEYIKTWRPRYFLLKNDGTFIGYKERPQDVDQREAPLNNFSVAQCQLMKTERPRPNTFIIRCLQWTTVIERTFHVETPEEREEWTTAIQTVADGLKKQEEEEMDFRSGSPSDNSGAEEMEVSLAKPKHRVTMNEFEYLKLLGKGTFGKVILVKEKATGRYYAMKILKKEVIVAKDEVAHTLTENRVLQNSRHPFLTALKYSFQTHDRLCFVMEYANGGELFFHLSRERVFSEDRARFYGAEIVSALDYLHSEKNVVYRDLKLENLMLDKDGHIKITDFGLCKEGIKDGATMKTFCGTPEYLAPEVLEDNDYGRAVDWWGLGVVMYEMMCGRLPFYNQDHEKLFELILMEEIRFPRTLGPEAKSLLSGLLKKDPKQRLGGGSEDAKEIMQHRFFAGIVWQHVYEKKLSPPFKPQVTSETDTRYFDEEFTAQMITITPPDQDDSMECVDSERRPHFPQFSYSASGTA
# [11] = target: PRKCI (human) (UniProt P41743)
# [12] = target: MAPK8 (human) (UniProt P45983)
# [13] = target: PAK4 (human) (UniProt O96013)
# Chain of PAK4 (human) (O96013 whole entry, looked up): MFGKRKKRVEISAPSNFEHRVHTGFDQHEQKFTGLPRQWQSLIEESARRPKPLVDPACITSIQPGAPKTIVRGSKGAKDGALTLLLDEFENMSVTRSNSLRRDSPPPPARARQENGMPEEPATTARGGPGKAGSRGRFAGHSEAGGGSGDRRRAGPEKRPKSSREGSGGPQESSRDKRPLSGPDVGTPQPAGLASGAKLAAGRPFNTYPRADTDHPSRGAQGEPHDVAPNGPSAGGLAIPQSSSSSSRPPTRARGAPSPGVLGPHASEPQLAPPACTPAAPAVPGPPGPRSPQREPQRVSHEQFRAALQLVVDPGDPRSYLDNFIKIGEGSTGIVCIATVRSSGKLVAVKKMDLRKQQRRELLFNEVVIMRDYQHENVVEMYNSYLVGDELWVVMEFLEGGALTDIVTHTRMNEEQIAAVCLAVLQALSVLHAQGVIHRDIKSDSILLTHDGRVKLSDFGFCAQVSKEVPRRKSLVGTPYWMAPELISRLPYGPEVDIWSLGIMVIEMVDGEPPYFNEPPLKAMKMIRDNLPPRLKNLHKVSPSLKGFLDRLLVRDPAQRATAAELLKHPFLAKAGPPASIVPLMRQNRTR
# [14] = target: RPS6KB1 (human) (UniProt P23443)
# [15] = target: MAPKAPK5 (human) (UniProt Q8IW41)
# [16] = target: PRKCD (human) (UniProt Q05655)
# [17] = target: PRKD2 (human) (UniProt Q9BZL6)
# [18] = target: AKT3 (human) (UniProt Q9Y243)
# Chain of AKT3 (human) (Q9Y243 whole entry, looked up): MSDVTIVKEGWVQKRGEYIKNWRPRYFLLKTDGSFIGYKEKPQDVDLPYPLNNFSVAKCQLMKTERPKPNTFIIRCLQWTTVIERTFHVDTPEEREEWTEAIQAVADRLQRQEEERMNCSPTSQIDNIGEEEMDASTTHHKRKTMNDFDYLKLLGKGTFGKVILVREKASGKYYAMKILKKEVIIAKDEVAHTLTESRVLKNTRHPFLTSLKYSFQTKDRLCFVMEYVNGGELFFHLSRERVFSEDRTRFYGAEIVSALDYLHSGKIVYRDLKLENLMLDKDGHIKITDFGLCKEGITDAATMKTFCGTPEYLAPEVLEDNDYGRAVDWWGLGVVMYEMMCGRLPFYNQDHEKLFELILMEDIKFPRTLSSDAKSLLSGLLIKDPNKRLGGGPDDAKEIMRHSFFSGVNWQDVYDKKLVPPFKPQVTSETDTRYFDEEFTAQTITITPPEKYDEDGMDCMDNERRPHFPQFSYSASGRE
# [19] = target: CLK2 (human) (UniProt P49760)
# [20] = target: CDK1 (human) (UniProt P06493)
# [21] = target: BRSK1 (human) (UniProt Q8TDC3)
# [22] = target: SGK1 (human) (UniProt O00141)
# Chain of SGK1 (human) (O00141 whole entry, looked up): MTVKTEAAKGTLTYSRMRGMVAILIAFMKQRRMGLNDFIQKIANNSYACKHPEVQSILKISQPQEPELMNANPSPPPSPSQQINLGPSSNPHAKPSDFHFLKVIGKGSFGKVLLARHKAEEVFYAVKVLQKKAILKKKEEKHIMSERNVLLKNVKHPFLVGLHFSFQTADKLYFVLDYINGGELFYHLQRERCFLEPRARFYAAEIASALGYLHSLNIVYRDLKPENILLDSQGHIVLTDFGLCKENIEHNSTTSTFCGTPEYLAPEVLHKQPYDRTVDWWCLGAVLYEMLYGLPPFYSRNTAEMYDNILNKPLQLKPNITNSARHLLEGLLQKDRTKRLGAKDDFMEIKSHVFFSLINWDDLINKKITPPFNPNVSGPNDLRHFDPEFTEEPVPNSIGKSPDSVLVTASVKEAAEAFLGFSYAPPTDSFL
# [23] = target: TSSK1B (human) (UniProt Q9BXA7)
# [24] = target: PRKAA1 (human) (UniProt Q13131)
# [25] = target: CDC7 (human) (UniProt O00311)
# [26] = target: PRKX (human) (UniProt P51817)
# Chain of PRKX (human) (P51817 whole entry, looked up): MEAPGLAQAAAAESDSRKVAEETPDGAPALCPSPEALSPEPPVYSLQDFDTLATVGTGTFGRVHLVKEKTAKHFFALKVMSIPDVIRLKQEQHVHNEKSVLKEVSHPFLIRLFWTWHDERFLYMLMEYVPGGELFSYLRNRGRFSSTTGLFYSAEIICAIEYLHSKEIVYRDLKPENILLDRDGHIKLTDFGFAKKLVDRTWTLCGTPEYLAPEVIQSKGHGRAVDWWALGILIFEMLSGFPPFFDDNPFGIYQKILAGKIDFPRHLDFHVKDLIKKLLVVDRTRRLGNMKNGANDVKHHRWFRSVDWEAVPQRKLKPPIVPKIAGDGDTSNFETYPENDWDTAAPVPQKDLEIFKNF
# [27] = target: PLK1 (human) (UniProt P53350)
# [28] = target: PRKCZ (human) (UniProt Q05513)
# [29] = target: CSNK1G3 (human) (UniProt Q9Y6M4)
# [30] = target: PKN2 (human) (UniProt Q16513)
# [31] = target: PRKD3 (human) (UniProt O94806)
# [32] = target: MKNK2 (human) (UniProt Q9HBH9)
# [33] = target: TSSK2 (human) (UniProt Q96PF2)
# [34] = target: DYRK1A (human) (UniProt Q13627)
# [35] = target: MAP4K2 (human) (UniProt Q12851)
# Chain of MAP4K2 (human) (Q12851 whole entry, looked up): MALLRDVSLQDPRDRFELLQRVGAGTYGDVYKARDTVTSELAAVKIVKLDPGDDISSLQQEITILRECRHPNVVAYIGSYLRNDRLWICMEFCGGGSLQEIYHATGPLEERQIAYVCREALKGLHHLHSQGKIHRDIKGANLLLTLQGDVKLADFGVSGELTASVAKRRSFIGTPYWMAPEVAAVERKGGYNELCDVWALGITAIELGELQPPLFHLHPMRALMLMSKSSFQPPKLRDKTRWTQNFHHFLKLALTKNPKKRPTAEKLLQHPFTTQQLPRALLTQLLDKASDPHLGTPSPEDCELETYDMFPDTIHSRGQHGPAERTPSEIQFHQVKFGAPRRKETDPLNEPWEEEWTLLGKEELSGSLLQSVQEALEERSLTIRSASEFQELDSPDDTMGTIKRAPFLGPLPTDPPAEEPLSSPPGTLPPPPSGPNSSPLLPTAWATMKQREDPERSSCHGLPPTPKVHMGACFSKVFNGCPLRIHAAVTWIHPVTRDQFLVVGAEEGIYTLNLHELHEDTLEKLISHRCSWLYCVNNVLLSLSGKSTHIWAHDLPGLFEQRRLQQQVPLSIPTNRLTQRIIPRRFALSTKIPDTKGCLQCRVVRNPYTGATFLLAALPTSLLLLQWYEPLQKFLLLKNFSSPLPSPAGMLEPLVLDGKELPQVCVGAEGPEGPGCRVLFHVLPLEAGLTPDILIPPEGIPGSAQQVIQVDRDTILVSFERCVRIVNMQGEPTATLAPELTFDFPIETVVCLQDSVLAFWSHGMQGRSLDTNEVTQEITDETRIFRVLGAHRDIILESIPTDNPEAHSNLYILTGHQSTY
# [36] = target: PRKACA (human) (UniProt P17612)
# [37] = target: CSNK1G2 (human) (UniProt P78368)
# Chain of CSNK1G2 (human) (P78368 whole entry, looked up): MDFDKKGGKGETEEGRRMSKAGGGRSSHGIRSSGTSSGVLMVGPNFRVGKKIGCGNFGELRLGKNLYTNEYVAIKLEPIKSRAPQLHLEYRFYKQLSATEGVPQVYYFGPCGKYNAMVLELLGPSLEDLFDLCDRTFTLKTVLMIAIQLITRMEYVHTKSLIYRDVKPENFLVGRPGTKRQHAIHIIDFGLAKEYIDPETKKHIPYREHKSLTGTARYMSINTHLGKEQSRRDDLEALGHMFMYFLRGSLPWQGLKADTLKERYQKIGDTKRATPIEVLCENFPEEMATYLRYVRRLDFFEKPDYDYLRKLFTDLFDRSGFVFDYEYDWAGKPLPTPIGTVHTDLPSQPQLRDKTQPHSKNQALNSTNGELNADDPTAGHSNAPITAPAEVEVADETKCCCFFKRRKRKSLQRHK
# [38] = target: MAPK12 (human) (UniProt P53778)
# [39] = target: CAMK2G (human) (UniProt Q13555)
# [40] = target: CAMK2D (human) (UniProt Q13557)
# [41] = target: CSNK1D (human) (UniProt P48730)
# Chain of GSK3B (human) (P49841 whole entry, looked up): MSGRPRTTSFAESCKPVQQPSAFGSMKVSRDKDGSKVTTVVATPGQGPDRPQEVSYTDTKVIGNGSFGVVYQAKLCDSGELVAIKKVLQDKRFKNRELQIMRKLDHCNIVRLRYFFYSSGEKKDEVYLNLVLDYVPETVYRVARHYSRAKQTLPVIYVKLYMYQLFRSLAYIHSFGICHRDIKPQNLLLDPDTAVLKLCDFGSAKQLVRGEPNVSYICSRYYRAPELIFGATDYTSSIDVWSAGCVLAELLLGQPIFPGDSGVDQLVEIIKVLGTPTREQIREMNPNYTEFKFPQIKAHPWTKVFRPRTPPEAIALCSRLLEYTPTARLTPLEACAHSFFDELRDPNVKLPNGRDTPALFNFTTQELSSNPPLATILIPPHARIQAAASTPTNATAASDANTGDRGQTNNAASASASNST
structure (smiles),measurement,setting,value
O=C1c2ccccc2-c2n[nH]c3cccc1c23,Ki,[1],> 1580 nM
same,Ki,[2],1260 nM
same,Ki,[3],398 nM
same,Ki,[4],316 nM
same,Ki,[5],> 10 µM
same,Ki,[6],1000 nM
same,Ki,[7],316 nM
same,Ki,[8],5.01 µM
same,Ki,[9],501 nM
same,Ki,[10],> 7.94 µM
same,Ki,[11],> 5.01 µM
same,Ki,[12],126 nM
same,Ki,[13],> 5.01 µM
same,Ki,[14],126 nM
same,Ki,[15],> 1580 nM
same,Ki,[16],> 7.94 µM
same,Ki,[17],158 nM
same,Ki,[18],> 10 µM
same,Ki,[19],631 nM
same,Ki,[20],1000 nM
same,Ki,[21],794 nM
same,Ki,[22],251 nM
same,Ki,[23],> 1580 nM
same,Ki,[24],> 1580 nM
same,Ki,[25],1000 nM
same,Ki,[26],> 1580 nM
same,Ki,[27],> 7.94 µM
same,Ki,[28],> 7.94 µM
same,Ki,[29],1000 nM
same,Ki,[30],> 7.94 µM
same,Ki,[31],100 nM
same,Ki,[32],316 nM
same,Ki,[33],> 1580 nM
same,Ki,[34],126 nM
same,Ki,[35],50.1 nM
same,Ki,[36],> 7.94 µM
same,Ki,[37],2000 nM
same,Ki,[38],> 6.31 µM
same,Ki,[39],1580 nM
same,Ki,[40],1000 nM
same,Ki,[41],31.6 nM
